According to US20090318456A1, “SUBSTITUTED PTERIDINES FOR THE TREATMENT AND PREVENTION OF VIRAL INFECTIONS” (Gilead Sciences, Inc., priority 2006, published 2009):
Where two headings read alike, the source gives them in different places.

Legend:
[1] = biological target: HCV replicon; experiment: Anti-HCV replicon assay (EC50, luciferase); type: cell-based, Hepatitis C virus (HCV); conditions: Huh-7 HCV replicon cells, 3 days, luciferase, read-out: EC50
Protocol: (§1) The anti HCV activity of specifically 2,4,6-trisubstituted pteridine derivatives was tested in a human hepatoma Huh-7 cell line harbouring a HCV replicon. The assay comprised the following steps:
(§2) Step 1: compound preparation and serial dilution involved the following alternatives, depending upon the water solubility of pteridine derivative being tested: • 1. with respect to water soluble 2,4,6-trisubstituted pteridine derivatives, 500 μL of solution in cell media (DMEM, 10% FBS, P/S, L-Glutamine) was prepared with a concentration that is twice the concentration of the starting final serial dilution concentration. 150 μL of the solution was added to the pre-specified wells in column 1 of a 96-well cell culture plate (PerkinElmer, white plate, cat. #6005181, for EC50 assay; black plate, cat. #6005182 for CC50 assay). The rest of the plate, i.e. columns 2-12, was filled with 100 μL of cell media. The plate was then placed on a Precision 2000 Workstation in order to start serial dilution. Pteridine compounds were diluted three times each step from column 1 to column 10. Column 11 was used as a blank control (no pteridine compound added). • 2. With respect to poorly water soluble pteridine derivatives, DMSO was used as a solvent, and serial dilution was performed in 50% DMSO in water, in a 384-well plate. A solution containing the relevant compound at 100-fold the concentration of the starting final serial dilution concentration was prepared in 50% DMSO in water and added to the pre-specified wells in column 1 of a polypropylene 384-well plate. This plate was then placed on a Precision 2000 Workstation in order to start serial dilution. After serial dilution, 2 μL of the solution was transferred from the 384-well plate to a 96-well cell culture plate containing 100 μL of cell media on a Biomek FX Workstation. The DMSO concentration in the final assay condition was 0.5% after cells have been added to the plate and the total volume in each well was brought to 200 μL. Step 2: to each well of the serial dilution plate prepared in step 1, 100 μL of cell media containing 6000 suspended Huh-7 HCV replicon cells was added with a Multidrop workstation. Plates were incubated for 3 days at 37° C. with 5% CO2. Step 3: detection: • 1) with respect to the EC50 assay, the media in a 96-well cell culture plate was aspirated with a Biotek EL405 plate-washer. A volume of 200 μL of a solution containing a 1:1 mixture of a cell-lysis buffer (commercially available from Promega, Luciferase Cell Culture Lysis 5× Reagent, cat. #E1531) and a luciferase substrate solution (commercially available from Promega, Luciferase Assay, cat. # E4550) was added to each well of the plate with Multidrop. The plate was incubated for 30 minutes at room temperature before the luminescence signal was measured with a TopCount plate-reader. • 2) with respect to the CC50 assay, 100 μL of a pre-mixed CellTiter-Glo (commercially available from Promega, cat. # G7572) solution was added directly to the cell culture in each well of the plate and the luminescence signal was measured with a TopCount plate-reader after 10 minutes of incubation at room temperature.
(§3) Results are expressed by the following data: • the 50% effective concentration (EC50), i.e. the concentration that protects 50% of the cell monolayer from virus-induced cythopathic effect, and • the 50% cytostatic concentration (CC50), i.e. the concentration that results in 50% inhibition of cell growth.

[2] = test system: Huh-7 HCV replicon cells; experiment: CC50 assay (CellTiter-Glo) in Huh-7 HCV replicon cells; type: cell-based, human
Protocol: as §1, §2, §3

Structure (SMILES) | EC50 ([1]; Table 1) [µM] | CC50 ([2]; Table 1, 3 days) [µM] | EC50 ([1]; Table 3) [µM] | CC50 ([2]; Table 3, 3 days) [µM]
COc1ccc(-c2cnc3nc(N)nc(N4CCN(C(=O)N5CCCC5)CC4)c3n2)cc1OC [Example 29] | < 0.3 | 10 to 20 |  | 
COc1ccc(-c2cnc3nc(N)nc(N4CCN(C(=O)Cc5ccc(Cl)cc5)CC4)c3n2)cc1OC [Example 36] | < 0.3 | < 10 |  | 
COCC(=O)N1CCN(c2nc(N)nc3ncc(-c4ccc(OC)c(OC)c4)nc23)CC1 [Example 32] | < 0.3 | > 20 |  | 
COc1ccc(-c2cnc3nc(N)nc(N4CCN(C(=O)Nc5ccccc5)CC4)c3n2)cc1OC [Example 87] | < 0.3 | < 10 |  | 
COc1ccc(-c2cnc3nc(N)nc(N4CCN(C(=O)Nc5ccc(C#N)cc5)CC4)c3n2)cc1OC [Example 89] | < 0.3 | > 20 |  | 
CCCCc1ccc(C(=O)N2CCN(c3nc(N)nc4ncc(-c5ccc(OC)c(OC)c5)nc34)CC2)cc1 [Example 54] | < 0.3 | < 10 |  | 
COc1ccc(-c2cnc3nc(N)nc(N4CCN(CCc5ccccc5)CC4)c3n2)cc1OC [Example 86] | < 0.3 | 10 to 20 |  | 
COc1ccc(-c2cnc3nc(N)nc(N4CCN(Cc5cccnc5)CC4)c3n2)cc1OC [Example 80] | < 0.3 | 10 to 20 |  | 
COc1ccc(-c2cnc3nc(N)nc(N4CCN(Cc5ccccc5F)CC4)c3n2)cc1OC [Example 53] | < 0.3 | < 10 |  | 
COc1ccc(-c2cnc3nc(N)nc(N4CCN(Cc5cccc(C)c5)CC4)c3n2)cc1OC [Example 49] | < 0.3 | 10 to 20 |  | 
COc1ccc(-c2cnc3nc(N)nc(N4CCN(C(=O)NCc5ccccc5)CC4)c3n2)cc1OC [Example 111] | < 0.3 | 10 to 20 |  | 
CCCCNC(=O)N1CCN(c2nc(N)nc3ncc(-c4ccc(OC)c(OC)c4)nc23)CC1 [Example 118] | < 0.3 | < 10 |  | 
CCC(C)Nc1nc(N)nc2ncc(-c3ccc(OC)c(OC)c3)nc12 (centres unmarked) [Example 234] |  |  | 0.3 to 1 | > 20
COc1ccc(-c2cnc3nc(N)nc(N4CCN(CCC#N)CC4)c3n2)cc1OC [Example 100] | < 0.3 | 10 to 20 |  | 
COc1ccc(-c2cnc3nc(N)nc(N4CCN(C(=O)COc5ccccc5)CC4)c3n2)cc1OC [Example 1] | < 0.3 | > 20 |  | 
COc1ccc(-c2cnc3nc(NCc4cccs4)nc(N)c3n2)cc1OC [Example 12] | 0.3 to 1 | 10 to 20 |  | 
COc1ccc(-c2cnc3nc(N)nc(N4CCN(C(=O)Oc5ccc(Cl)cc5)CC4)c3n2)cc1OC [Example 63] | < 0.3 | < 10 |  | 
COc1ccc(OC(=O)N2CCN(c3nc(N)nc4ncc(-c5ccc(OC)c(OC)c5)nc34)CC2)cc1 [Example 60] | < 0.3 | < 10 |  | 
COc1ccc(-c2cnc3nc(N)nc(N4CCN(CC(=O)N5CCOCC5)CC4)c3n2)cc1OC [Example 83] | 0.3 to 1 | > 20 |  | 
CCC(C)Nc1nc(N)nc2ncc(-c3ccc(OC)c(OC)c3)nc12 (centres unmarked) [Example 230] |  |  | 0.3 to 1 | > 20
CCOC(=O)CN1CCN(c2nc(N)nc3ncc(-c4ccc(OC)c(OC)c4)nc23)CC1 [Example 98] | < 0.3 | 10 to 20 |  | 
COc1ccc(-c2cnc3nc(N)nc(N4CCN(C(=O)OCc5ccccc5)CC4)c3n2)cc1OC [Example 43] | < 0.3 | < 10 |  | 
COc1ccc(-c2cnc3nc(N)nc(N4CCN(CC(=O)N(C)c5ccccc5)CC4)c3n2)cc1OC [Example 85] | < 0.3 | < 10 |  | 

Structure (SMILES) | EC50 ([1]; Table 1) [µM] | CC50 ([2]; Table 1, 3 days) [µM] | EC50 ([1]; Table 3) [µM] | CC50 ([2]; Table 3, 3 days) [µM]
CCN(C(=O)N1CCN(c2nc(N)nc3ncc(-c4ccc(OC)c(OC)c4)nc23)CC1)c1ccccc1 [Example 121] | < 0.3 | < 10 |  | 
COc1ccc(-c2cnc3nc(N)nc(N4CCN(C(=O)c5cccs5)CC4)c3n2)cc1OC [Example 19] | < 0.3 | 10 to 20 |  | 
CCCCCC(=O)N1CCN(c2nc(N)nc3ncc(-c4ccc(OC)c(OC)c4)nc23)CC1 [Example 16] | < 0.3 | 10 to 20 |  | 
COc1ccc(-c2cnc3nc(N)nc(N4CCN(C(=O)Nc5cccc(Cl)c5)CC4)c3n2)cc1OC [Example 122, 2-amino-4-(N-3-chloro-phenyl-carbamoyl-piperazin-1-yl)-6-(3,4-dimethoxyphenyl)pteridine] | < 0.3 | < 10 |  | 
CCOCCN1CCN(c2nc(N)nc3ncc(-c4ccc(OC)c(OC)c4)nc23)CC1 [Example 104] | < 0.3 | > 20 |  | 
COc1ccc(-c2cnc3nc(N)nc(N4CCN(C(=O)NCCc5cccs5)CC4)c3n2)cc1OC [Example 115] | < 0.3 | < 10 |  | 
COc1ccc(-c2cnc3nc(N)nc(N4CCN(C(=O)c5ccoc5)CC4)c3n2)cc1OC [Example 38] | 0.3 to 1 | 10 to 20 |  | 
COc1ccc(-c2cnc3nc(N)nc(N4CCN(C(=O)N(C)c5ccccc5)CC4)c3n2)cc1OC [Example 119] | < 0.3 | < 10 |  | 
Nc1ccc(-c2cnc3nc(N)nc(N4CCOCC4)c3n2)cc1 [Example 231] |  |  | 0.3 to 1 | > 20
COc1ccc(-c2cnc3nc(N)nc(N4CCN(C(=O)Nc5cccc(C(F)(F)F)c5)CC4)c3n2)cc1OC [Example 123, 2-amino-4-(N-3-trifluoromethyl-phenyl-carbamoyl-piperazin-1-yl)-6-(3,4-dimethoxyphenyl)pteridine] | < 0.3 | < 10 |  | 
COc1ccc(-c2cnc3nc(N)nc(N4CCN(S(=O)(=O)c5ccccc5)CC4)c3n2)cc1OC [Example 26] | < 0.3 | 10 to 20 |  | 
COc1ccc(-c2cnc3nc(N)nc(N4CCN(Cc5ccncc5)CC4)c3n2)cc1OC [Example 81] | 0.3 to 1 | 10 to 20 |  | 
COc1ccc(-c2cnc3nc(N)nc(N4CCN(CC5CCCO5)CC4)c3n2)cc1OC (centres unmarked) [Example 108] | 0.3 to 1 | > 20 |  | 
COc1ccc(-c2cnc3nc(N)nc(N4CCN(C(=O)NCc5ccc(F)cc5)CC4)c3n2)cc1OC [Example 112] | < 0.3 | < 10 |  | 
COCCN1CCN(c2nc(N)nc3ncc(-c4ccc(OC)c(OC)c4)nc23)CC1 [Example 55] | 0.3 to 1 | > 20 |  | 
COc1ccc(-c2cnc3nc(N)nc(N4CCN(C(=O)Nc5ccc(F)cc5)CC4)c3n2)cc1OC [Example 88] | < 0.3 | < 10 |  | 
COc1ccc(-c2cnc3nc(N)nc(N4CCN(CC5OCCO5)CC4)c3n2)cc1OC [Example 109] | 0.3 to 1 | > 20 |  | 
CCCCCOc1ccc(C(=O)N2CCN(c3nc(N)nc4ncc(-c5ccc(OC)c(OC)c5)nc34)CC2)cc1 [Example 24] | < 0.3 | < 10 |  | 
COc1ccc(-c2cnc3nc(N)nc(N4CCN(CC(=O)N5CCCC5)CC4)c3n2)cc1OC [Example 84] | < 0.3 | > 20 |  | 
COc1ccc(N2CCN(c3nc(N)nc4ncc(-c5ccc(OC)c(OC)c5)nc34)CC2)cc1 [Example 95] | 0.3 to 1 | > 20 |  | 
CCN(CC)C(=O)N1CCN(c2nc(N)nc3ncc(-c4ccc(OC)c(OC)c4)nc23)CC1 [Example 20] | < 0.3 | > 20 |  | 
COc1ccc(-c2cnc3nc(N)nc(N4CCN(C(=O)Nc5cccs5)CC4)c3n2)cc1OC [Example 114] | < 0.3 | < 10 |  | 
COc1ccc(-c2cnc3nc(N)nc(N4CCN(CCOc5ccccc5)CC4)c3n2)cc1OC [Example 2] | < 0.3 | > 20 |  | 
